Consider twelve compounds from PubChem BioAssay (NCI).

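Briefly, cells in 96-well plates were exposed to five compound concentrations for 48 h, and endpoints were estimated by linear interpolation. At the GI50, growth is halved. TGI is the concentration that stops growth completely.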

Assay in all cases: growth of human tumour cells (NCI), 48 h
For experiment [1], the system named is NCI-H226 lung.
Experiment [2] relates to A498 renal.
The subject of experiment [3] is NCI-H23 lung.
The test system of experiment [4] is TK-10 renal.
Experiment [5] concerns NCI-H522 lung.
Experiment [6] deals with SW-620 colon.
Experiment [7] has as its system SK-MEL-28 melanoma.
Experiment [8] has as its system HOP-92 NSCLC.
In experiment [9] the test system is HT29 colon.
For experiment [10], the system named is DU-145 prostate.

Take `C[n+]1ccc(-c2c3nc(c(-c4cc[n+](C)cc4)c4ccc([n-]4)c(-c4cc[n+](C)cc4)c4nc(c(-c5cc[n+](C)cc5)c5ccc2[n-]5)C=C4)C=C3)cc1.[I-].[Zn+2]`: the GI50 in [1] is 14.9 µM; in [2], 8.34 µM; in experiment [3], 26.8 µM; in [4] it was 15.2 µM; in experiment [5], 1.61 µM; in [6], 24.1 µM. In addition, in experiment [7], the GI50 was 5.54 µM. Also, the TGI in [1] was determined as 48.3 µM; in [2] it was 31.3 µM; in experiment [3], 59.2 µM; in [4], 38 µM; in [5] it was 9.88 µM; in experiment [6], 45.7 µM. The TGI in [7] is 20 µM.
`O=c1oc2ccc(-n3c(=O)c4ccccc4c4ccccc4c3=O)cc2c2ccccc12`: the TGI in [1] was > 100 µM; in [8] it was 84.5 µM; in [9] it was > 100 µM; in experiment [2] it was > 100 µM; in experiment [3] it was > 100 µM; in experiment [4] it was > 100 µM. Moreover, the TGI in experiment [5], in [6] and in experiment [7] was > 100 µM in each case.
Consider `OC1C2CCC1C1C3C=CC(C3)C21` (configuration not stated), for which the TGI in experiment [1], in experiment [8], in [9], in experiment [3], in experiment [4] and in [5] was > 100 µM throughout. For the same compound, the TGI in experiment [6] and in [7] was > 100 µM each time.
Consider `COc1ccc(-c2nc(N3CCN(C(=O)C4CCCCC4)CC3)c3c4c(sc3n2)CCCC4)cc1`, for which the GI50 is 41 µM in experiment [1]; > 100 µM in [10]; > 100 µM in experiment [9]; 14.2 µM in [2]; 63.1 µM in experiment [3]; 34.4 µM in experiment [4]. Further, the figures for the GI50 in experiment [5], in experiment [6] and in [7] were 27.9 µM, > 100 µM and > 100 µM, respectively. In addition, the TGI was > 100 µM in experiment [1]; > 100 µM in experiment [10]; > 100 µM in [9]; 81.3 µM in experiment [2]; > 100 µM in experiment [3]; 90.8 µM in experiment [4]. The TGI in experiment [5] was 96.9 µM; in [6], > 100 µM; in [7], > 100 µM.
As for `c1ccc2c(c1)[nH]c1c2nc2ncccn21`, the TGI in experiment [1], in [8], in [9], in experiment [2], in [3] and in [4] was > 100 µM in each case. For the same compound, the TGI in [5], in experiment [6] and in experiment [7] was > 100 µM each time.
For the compound `CC1OC(OC2C(CO)OC(O[C@H]3CC[C@@]4(C)C(=CC[C@H]5[C@@H]6C[C@@H]7O[C@]8(CC[C@@H](C)CN8)[C@@H](C)[C@@H]7[C@@]6(C)CC[C@@H]54)C3)C(O)C2O)C(O)C(O)C1O` (some centres not stated), the TGI in experiment [8], in experiment [9], in experiment [2], in [3], in [4] and in experiment [5] was > 100 µM throughout. Further, the TGI in [6] and in experiment [7] was > 100 µM in each case.
On to `O=C(NCC(O)CNC(=O)C(F)(F)F)C(F)(F)F`, for which the TGI in experiment [1], in [8], in [9], in experiment [2], in [3] and in experiment [4] was > 100 µM throughout. In addition, the TGI in experiment [5] and in experiment [6] was > 100 µM in each case.
Take `CC(C)(C)OC(=O)NC(CO)c1cccc(OCc2ccccc2)c1` (configuration not stated): the TGI in experiment [1], in experiment [8], in experiment [9], in [2], in experiment [3] and in [4] was > 100 µM throughout. The TGI in experiment [5], in [6] and in experiment [7] was > 100 µM each time.
On to `N#C/C(=C/Sc1ccccc1)C(=O)O`, for which the TGI in experiment [1] was 58.7 µM; in experiment [8], > 100 µM; in experiment [9], 84.1 µM; in [3], > 100 µM; in [4] it was > 100 µM; in [5], 23.4 µM. Moreover, the TGI in experiment [6] and in experiment [7] was > 100 µM in each case.
Regarding `O=c1oc(=O)c2oc3ccccc3oc1=2`, the TGI in [1], in experiment [8], in experiment [9], in experiment [2], in experiment [3] and in experiment [4] was > 100 µM in each case. Further, the TGI in [5], in [6] and in experiment [7] was > 100 µM in each case.
For the compound `C/C(=C(\c1ccc(OCCN2CCCCCC2)cc1)c1ccc(OC(=O)Cc2ccccc2)cc1)c1ccc(Cl)cc1`, the GI50 in [1] was 2.94 µM; in experiment [10], 3.15 µM; in [9], 1.05 µM; in experiment [2], 6.35 µM; in experiment [3], 2.81 µM; in experiment [4], 4.43 µM. Besides, the values for the GI50 in experiment [5], in [6] and in [7] were 3.6 µM, 2.56 µM and 2.52 µM, respectively. Also, the TGI in experiment [1] is 7.32 µM; in experiment [10] it was 6.32 µM; in experiment [9], 4.01 µM; in [2], 16.7 µM; in experiment [3] it was 7.13 µM; in experiment [4], 16.6 µM. In addition, the TGI in experiment [5] amounted to 6.87 µM; in [6], 5.25 µM; in experiment [7] it was 5.03 µM.
With `NCCN1C(=O)C2C3c4ccccc4C(c4ccccc43)C2C1=O` (configuration not stated), the TGI in experiment [1], in experiment [8], in [9], in [2], in experiment [3] and in [4] was > 100 µM throughout. Also, the TGI in experiment [5], in [6] and in [7] was > 100 µM each time.
